Like-named read-outs stand apart in the source and are kept apart here.
Experiments:
[1] = system: human melanoma (A-375) cancer cell line; assay: MTT cytotoxicity assay, A-375; details: for inhibition at 100 µM / IC50: Homo sapiens; for inhibition at 100 µM: A-375, read-out: % Inhibition A-375; for IC50: A-375, read-out: IC50 (Mean ± SEM) A-375
Experimental: (§2) After 48 h incubation, the medium was aspirated and then 40 μL MTT salt (2.5 mg/mL) was added for a further 4 h. […] Doxorubicin was used as the positive control and 0.5% DMSO was used as the negative control.

VEGFR-2 = VEGFR-2 (Homo sapiens, UniProt P35968); assay: biochemical
Experimental: The cells were harvested, and the homogenates were prepared in saline using a tight pestle homogenizer until complete cell disruption. The kit used a double-antibody sandwich enzyme-linked immunosorbent assay (ELISA) to determine the level of human VEGFR-2 in samples. A monoclonal antibody for VEGFR-2 was pre-coated onto 96-well plates. The test samples were added to the wells and a biotinylated detection polyclonal antibody from goat specific for VEGFR-2 was added, subsequently followed by washing with PBS buffer. Avidin–Biotin–Peroxidase complex was added, and the unbound conjugates were washed away with PBS buffer. HRP substrate TMB was used to visualize HRP enzymatic reaction. TMB was catalysed by HRP to produce a blue colour product that changed into yellow after the addition of acidic stop solution. The density of yellow colour is proportional to the human VEGFR-2 amount of the sample captured in the plate. The chroma of colour and the concentration of the human VEGFR-2 of the samples were positively correlated and the optical density was determined at 450 nm. The level of human VEGFR-2 in samples was calculated (pg/mL) as duplicate determinations from the standard curve. The % inhibition was calculated in comparison to control untreated cells.

Caspase-7 = Caspase-7 protein level ELISA in Paca-2; format: cell-based, human; details: Paca-2, 24 h at IC50 (10.7 μM)
Experimental: The micro-ELISA plate provided in this kit was pre-coated with a Caspase-7-specific antibody. A biotinylated Caspase-7 antibody and Avidin–horseradish peroxidase (HRP) conjugate was added. The excess components were removed. The substrate solution was added. Wells containing Caspase-7, biotinylated detection antibody, and Avidin-HRP conjugate appeared blue in colour. The colour turned yellow following the addition of sulphuric acid solution. The optical density (OD) was measured at a wavelength of 450 ± 2 nm.

[2] = system: human melanoma (Mel-501) cancer cell line; assay: MTT cytotoxicity assay, Mel-501; details: for inhibition at 100 µM: read-out: % Inhibition Mel-501; for IC50: read-out: IC50 (Mean ± SEM) Mel-501
Experimental: as §2

[3] = system: human prostate (PC-3) cancer cell line; assay: MTT cytotoxicity assay, PC-3; details: for inhibition at 100 µM / IC50: Homo sapiens; for inhibition at 100 µM: read-out: % Inhibition PC-3; for IC50: read-out: IC50 (Mean ± SEM) PC-3
Experimental: as §2

[4] = system: human colon (Caco-2) cancer cell line; assay: MTT cytotoxicity assay, Caco-2; details: for % Inhibition Caco-2: Caco-2, at 100 µM, MTT, (-) No activity detected; for IC50: read-out: IC50 (Mean ± SEM) Caco-2, Caco-2, MTT, three independent determinations
Experimental: as §2

EGFR = EGFR (Homo sapiens, UniProt P00533); assay: In vitro kinase inhibitory assessment, EGFR (Kinase-Glo luminescence); format: biochemical; details: mean of three values; read-out: IC50 (Mean ± SEM) EGFR
EGFR, sequence (P00533 25-1210): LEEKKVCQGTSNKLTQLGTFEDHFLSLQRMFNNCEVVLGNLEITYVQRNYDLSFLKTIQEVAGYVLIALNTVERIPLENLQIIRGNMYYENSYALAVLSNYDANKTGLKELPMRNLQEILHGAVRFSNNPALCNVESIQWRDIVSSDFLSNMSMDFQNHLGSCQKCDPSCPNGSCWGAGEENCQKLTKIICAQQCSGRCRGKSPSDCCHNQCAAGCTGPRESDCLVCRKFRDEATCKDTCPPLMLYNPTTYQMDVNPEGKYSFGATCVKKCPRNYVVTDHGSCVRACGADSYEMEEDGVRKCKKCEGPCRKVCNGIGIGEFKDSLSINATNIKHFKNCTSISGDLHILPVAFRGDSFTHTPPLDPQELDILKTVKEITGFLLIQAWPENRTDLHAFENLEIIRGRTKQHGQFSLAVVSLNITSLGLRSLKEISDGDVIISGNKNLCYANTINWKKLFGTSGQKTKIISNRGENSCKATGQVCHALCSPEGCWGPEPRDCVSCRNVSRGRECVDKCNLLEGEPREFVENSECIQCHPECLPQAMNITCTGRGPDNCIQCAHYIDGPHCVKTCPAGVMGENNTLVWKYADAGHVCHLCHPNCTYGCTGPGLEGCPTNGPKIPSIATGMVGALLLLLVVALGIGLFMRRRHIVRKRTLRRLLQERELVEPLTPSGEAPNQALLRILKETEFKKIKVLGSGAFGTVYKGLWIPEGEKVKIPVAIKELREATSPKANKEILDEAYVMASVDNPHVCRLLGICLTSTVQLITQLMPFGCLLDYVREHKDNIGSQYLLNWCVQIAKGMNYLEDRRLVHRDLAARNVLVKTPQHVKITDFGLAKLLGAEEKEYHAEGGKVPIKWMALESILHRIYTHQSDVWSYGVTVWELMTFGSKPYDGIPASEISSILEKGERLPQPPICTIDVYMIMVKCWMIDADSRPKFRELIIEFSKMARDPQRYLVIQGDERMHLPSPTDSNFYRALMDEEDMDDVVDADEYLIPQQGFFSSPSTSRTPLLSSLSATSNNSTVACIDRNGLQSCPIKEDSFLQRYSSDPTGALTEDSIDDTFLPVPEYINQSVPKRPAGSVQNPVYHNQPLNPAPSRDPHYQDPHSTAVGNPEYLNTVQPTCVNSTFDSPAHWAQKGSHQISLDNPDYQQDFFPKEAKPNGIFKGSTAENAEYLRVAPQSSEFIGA

Caspase-3 = Caspase-3 protein level ELISA in Paca-2; format: cell-based, human; details: Paca-2, 24 h at IC50 (10.7 μM)
Excerpt: The precoated micro-ELISA plate with an antibody specific to Caspase-3 was applied using the Human Caspase-3 ELISA Kit from Invitrogen INC. Catalog # KHO1091 (96 tests) (542 Flynn Road, Camarillo, CA, USA) according to the manufacturer’s instructions.

CDK-2/cyclin A2 = CDK-2/cyclin A2 (Homo sapiens, UniProt P24941); assay: In vitro kinase inhibitory assessment, CDK-2/cyclin A2 (ELISA); format: biochemical; details: mean of three values; read-out: IC50 (Mean ± SEM) CDK-2/Cyclin A2
Experimental: Assay of CDK-2/cyclin A2 was achieved through ELISA using an affinity tag labelled capture antibody. Adding the samples and the standard to the wells was carried out after the addition of the antibody mix. After the incubation period, the unrestrained substance was discarded and the wells were washed. The added TMB (3,3′,5,5′-tetramethylbenzidine) substrate was prompted by Horseradish peroxidase (HRP) and blue coloration appeared. This reaction was stopped with the addition of stop solution to complete the change in colour from blue to yellow. The created signals were equivalent to the quantity of bound analyte and Robonik P2000 ELISA reader was used to record the intensity at a certain wavelength (450 nm). The concentrations of the screened compounds were calculated through the plotted curve.

Paca-2 cells [5] = assay: Apoptosis detection, FITC Annexin V/PI flow cytometry; format: cell-based, human; details: Paca-2, 24 h at IC50 (10.7 μM); DMSO control 0.28%
Experimental: (§1) Apoptosis investigation and cell cycle analysis were elucidated by flow cytometry. Paca-2 cells were seeded at 8 × 10^4 and incubated at 37 °C in 5% CO2 overnight. […] For cell cycle analysis, cell pellets were fixed with 70% ethanol on ice for 15 min and collected again. The pellets were incubated with propidium iodide (PI) staining solution at room temperature for 1 h and analysed by a Gallios flow cytometer (Beckman Coulter, Brea, CA, USA). Apoptosis detection was carried out by FITC AnnexinV/PI commercial kit (Becton Dickenson, Franklin Lakes, NJ, USA) following the manufacturer’s protocol. The samples were analysed by fluorescence-activated cell sorting (FACS) with a Gallios flow cytometer (Beckman Coulter, Brea, CA, USA) within 1 h after staining. Data were analysed using Kaluza v 1.2 (Beckman Coulter, Brea, CA, USA).

PD-1 = PD-1 protein level ELISA in Paca-2; format: cell-based, human; details: Paca-2, 24 h at IC50 (10.7 μM); untreated control 275.6 Pg/mL
Experimental: Samples or standards were added to the wells Human PD-1 eliza kit (ab252360 Human PD-1, Abcam, Cambridge, MA, USA), followed by the antibody mix. After incubation, the wells were washed to remove unbound material. TMB Development Solution was added and during incubation was catalysed by HRP, generating blue coloration. This reaction was then stopped by the addition of Stop Solution, completing any colour change from blue to yellow. The optical density (OD) was measured at a wavelength of 450 ± 2 nm.

[6] = system: human pancreatic (Paca-2) cancer cell line; assay: MTT cytotoxicity assay, Paca-2; details: for inhibition at 100 µM: PaCa-2, read-out: % Inhibition Paca-2
Experimental: as §2

Cytochrome-c = Cytochrome-c ELISA in Paca-2; format: cell-based, human; details: Paca-2, 24 h at IC50 (10.7 μM); control 0.123 ng/mL
Experimental: Cytochrome-c specific antibodies were precoated onto 96-well plates. Cytochrome-c were analysed by enzyme-linked immunosorbent assays (ELISAs) using commercial kits (ab119521; Abcam, Cambridge, MA, USA). The optimal dilutions were determined and ELISAs were performed according to the manufacturer’s instructions.

Paca-2 cells [7] = assay: Cell cycle analysis by flow cytometry (PI staining); format: cell-based, human; details: Paca-2, 24 h at IC50 (10.7 μM)
Experimental: as §1

[8] = system: human colon (Caco-2) cancer cell line; details: Caco-2, 100 µM
Experimental: as §2

[9] = Homo sapiens, PaCa-2, read-out: IC50 (Mean ± SEM) Paca-2

VEGFR-2, sequence (P35968 20-1356): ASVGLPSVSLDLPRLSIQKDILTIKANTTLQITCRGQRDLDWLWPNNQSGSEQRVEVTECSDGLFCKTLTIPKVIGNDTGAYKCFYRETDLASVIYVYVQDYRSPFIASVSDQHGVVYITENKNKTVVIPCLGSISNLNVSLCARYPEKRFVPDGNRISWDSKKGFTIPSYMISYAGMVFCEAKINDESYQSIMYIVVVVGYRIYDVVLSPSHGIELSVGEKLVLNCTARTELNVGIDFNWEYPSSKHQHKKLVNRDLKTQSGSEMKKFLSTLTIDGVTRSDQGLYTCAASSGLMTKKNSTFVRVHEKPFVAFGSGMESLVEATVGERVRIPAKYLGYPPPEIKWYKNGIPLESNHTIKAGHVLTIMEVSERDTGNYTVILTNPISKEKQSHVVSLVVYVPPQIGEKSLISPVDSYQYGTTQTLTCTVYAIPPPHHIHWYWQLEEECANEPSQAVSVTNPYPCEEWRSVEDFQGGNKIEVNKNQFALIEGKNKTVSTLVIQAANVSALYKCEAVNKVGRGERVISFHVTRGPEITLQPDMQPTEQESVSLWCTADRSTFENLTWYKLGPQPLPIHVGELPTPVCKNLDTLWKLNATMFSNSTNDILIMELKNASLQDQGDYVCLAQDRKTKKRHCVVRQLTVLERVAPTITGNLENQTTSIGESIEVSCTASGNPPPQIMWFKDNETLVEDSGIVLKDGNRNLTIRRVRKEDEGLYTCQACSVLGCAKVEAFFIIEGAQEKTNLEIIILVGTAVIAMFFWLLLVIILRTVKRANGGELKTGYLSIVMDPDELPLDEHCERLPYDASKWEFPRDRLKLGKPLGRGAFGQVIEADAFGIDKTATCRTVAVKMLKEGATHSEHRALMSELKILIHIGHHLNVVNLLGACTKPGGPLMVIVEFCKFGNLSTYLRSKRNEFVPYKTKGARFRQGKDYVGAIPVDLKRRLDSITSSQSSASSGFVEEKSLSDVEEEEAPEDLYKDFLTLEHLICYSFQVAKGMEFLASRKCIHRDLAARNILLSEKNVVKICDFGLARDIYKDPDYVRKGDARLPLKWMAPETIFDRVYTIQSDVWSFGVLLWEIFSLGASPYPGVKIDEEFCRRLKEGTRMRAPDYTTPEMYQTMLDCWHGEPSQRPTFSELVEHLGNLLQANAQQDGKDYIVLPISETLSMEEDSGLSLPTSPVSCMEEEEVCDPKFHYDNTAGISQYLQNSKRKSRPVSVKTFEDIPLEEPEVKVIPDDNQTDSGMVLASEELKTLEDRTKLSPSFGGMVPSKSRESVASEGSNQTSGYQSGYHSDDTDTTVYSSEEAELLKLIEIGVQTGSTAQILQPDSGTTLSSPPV

Molecule | inhibition at 100 µM [1] | IC50 [1] | IC50 (VEGFR-2) | inhibition at 100 µM ([2]; Homo sapiens) | IC50 ([2]; Homo sapiens) | inhibition at 100 µM [3] | IC50 [3] | % Inhibition Caco-2 [4] | IC50 [4] | IC50 (EGFR) | IC50 (CDK-2/cyclin A2) | inhibition at 100 µM ([6]; Homo sapiens) | IC50 [6, 9] | melting point | also measured
O=c1cc(-c2ccccc2)c2ccc(OCc3nnn(CC(O)CO)n3)cc2o1 (stereo not drawn) [Compound 10, 7-((2-(2,3-Dihydroxypropyl)-2H-tetrazol-5-yl)methoxy)-4-phenyl-2H-chromen-2-one] | 98.2% | 10.9 ± 0.1 µM | 0.86 ± 0.25 µM | 95.8% | 8.8 ± 0.2 µM | 99.2% | 25.4 ± 0.5 µM | 99.6% | 31.9 ± 0.7 µM | 0.09 ± 0.21 µM | 0.19 ± 0.05 µM | 99.9% | 10.7 ± 0.4 µM |  | elevation of caspase-7 protein level (Caspase-7; versus control): 4.3 fold; caspase-7 protein level in treated cells (Caspase-7; control 0.555 ng/mL): 2.363 ng/mL; upregulation of caspase-3 protein level (Caspase-3; versus control): 2.8 fold; caspase-3 protein level in treated cells (Caspase-3; control 95.04 Pg/mL): 266.8 pg/mL; late/secondary cellular apoptosis (PI / Annexin V-FITC, upper right quadrant) (Paca-2 cells [5]): 15.55%; PD-1 level in treated cells (PD-1): 91.4 pg/mL; cytochrome-c release into the cytosol of treated cells (Cytochrome-c): 0.395 ng/mL; increase of percentage of the cells at S phase compared to the control (Paca-2 cells [7]): 1.3 folds; increase of pre-G1 phase cells percentage compared to the control (Paca-2 cells [7]): 15.7 folds
CC(=O)OC[C@H]1O[C@@H](n2cc(COc3ccc4c(-c5ccccc5)cc(=O)oc4c3)nn2)[C@H](OC(C)=O)[C@@H](OC(C)=O)[C@@H]1OC(C)=O [Compound 13, 4-Phenyl-7-((1-(2,3,4,6-Tetra-O-acetyl-β-D-glucopyranosyl)-1H-1,2,3-triazol-4-yl)methoxy)-2H-chromen-2-one] | 96.9% | 14.5 ± 0.2 µM | 45 ± 0.1 µM | 98.5% | 16.7 ± 0.3 µM | 95.6% | 22.3 ± 0.6 µM | 99.6% | 40.5 ± 0.9 µM | 66 ± 0.01 µM | 0.5 ± 0.11 µM | 97.6% | 14.6 ± 1.1 µM | 131 to 132 °C | 
CC(=O)OC[C@H]1O[C@@H](n2cc(COc3ccc4c(-c5ccccc5)cc(=O)oc4c3)nn2)[C@H](OC(C)=O)[C@@H](OC(C)=O)[C@H]1OC(C)=O [Compound 14, 4-Phenyl-7-((1-(2,3,4,6-tetra-O-acetyl-β-D-galactopyranosyl)-1H-1,2,3-triazol-4-yl)methoxy)-2H-chromen-2-one] | 96.8% | 12.4 ± 0.3 µM |  | 77.1% | 65.1 ± 1.2 µM | 80.2% | 51.3 ± 1.6 µM | 89.8% | 70.2 ± 1.4 µM |  |  | 94.9% | 33.4 ± 0.6 µM | 93 to 94 °C | 
C#CCOc1ccc2c(-c3ccccc3)cc(=O)oc2c1 [Compound 11, 4-Phenyl-7-(prop-2-yn-1-yloxy)-2H-chromen-2-one] | 9.1% |  |  | 44% |  | 16.7% |  | 0% |  |  |  | 58.1% |  | 116 to 117 °C | 
4-Phenyl-7-((1-(2,3,4-tri-O-acetyl-β-D-xylopyranosyl)-2H-tetrazol-5-yl)methoxy)-2H-chromen-2-one [Compound 6] |  |  |  |  |  |  |  |  |  |  |  |  |  |  | % Inhibition A-375 ([1]; A-375, at 100 µM, MTT): 45.8%; % Inhibition Mel-501 ([2]; Mel-501, at 100 µM, MTT): 71%; IC50 ([2]; Mel-501, MTT, three independent determinations): 80.4 ± 2.1 µM; % Inhibition PC-3 ([3]; PC-3, at 100 µM, MTT): 9.1%; % Inhibition Paca-2 ([6]; Paca-2, at 100 µM, MTT): 72.1%; IC50 ([6]; read-out: IC50 (Mean ± SEM) Paca-2, Paca-2, MTT, 100 to 0.78 μM, three independent determinations): 60 ± 1.4 µM; % Inhibition Caco-2 [8]: -
O=c1cc(-c2ccccc2)c2ccc(OCc3cn([C@@H]4O[C@H](CO)[C@H](O)[C@H](O)[C@H]4O)nn3)cc2o1 [Compound 17, 4-Phenyl-7-((1-(β-D-galactopyranosyl)-1H-1,2,3-triazol-4-yl)methoxy)-2H-chromen-2-one] | 98.5% | 39.6 ± 0.5 µM |  | 98.6% | 35.8 ± 0.7 µM | 97.3% | 41 ± 2.1 µM | 95.6% | 48.1 ± 0.8 µM |  |  | 96.3% | 33.3 ± 0.5 µM | 185 to 186 °C | 
CC(=O)OC1COC(n2cc(COc3ccc4c(-c5ccccc5)cc(=O)oc4c3)nn2)C(OC(C)=O)C1OC(C)=O [Compound 15, 4-Phenyl-7-((1-(2,3,4-tria-O-acetyl-β-D-xylopyranosyl)-1H-1,2,3-triazol-4-yl)methoxy)-2H-chromen-2-one] | 94.7% | 9.9 ± 1 µM | 40 ± 0.05 µM | 97.8% | 4.1 ± 0.3 µM | 98.2% | 12.5 ± 0.9 µM | 99.3% | 20.4 ± 0.6 µM | 53 ± 0.15 µM | 0.48 ± 0.15 µM | 95% | 16.9 ± 0.9 µM | 89 to 90 °C | 
O=c1cc(-c2ccccc2)c2ccc(OCc3cn([C@@H]4O[C@H](CO)[C@@H](O)[C@H](O)[C@H]4O)nn3)cc2o1 [Compound 16, 4-Phenyl-7-((1-(β-D-glucopyranosyl)-1H-1,2,3-triazol-4-yl)methoxy)-2H-chromen-2-one] | 97.5% | 16.3 ± 0.6 µM |  | 99.1% | 26.5 ± 0.7 µM | 95.8% | 36.4 ± 1.1 µM | 99% | 48.1 ± 0.4 µM |  |  | 96.9% | 23.8 ± 1.1 µM | 180 to 182 °C | 
